Among the data in ChEMBL document CHEMBL4665674, “Medicinal Chemistry Strategies for the Development of Kinase Inhibitors Targeting Point Mutations” (J Med Chem, 2020) are IC50, DC50 and GI50 values, retold here.

Assay [1] is described as follows: cells. As to conditions: Homo sapiens, HN11, 72 h.
The target of assay [2] is T1, Protein cereblon/Tyrosine-protein kinase BTK (Homo sapiens, UniProt Q06187+Q96SW2, C481S). Description: Induction of CRBN-mediated degradation of BTK C481S mutant (unknown origin) expressed in B cells derived from X-linked agammaglobulinemia patient by immunoblot analysis. In kind it is cell-based. As to conditions: b-cell. Background: Immunoblotting shows a protein as a band on a membrane.

Assay [3] concerns the target T2, Protein cereblon/Tyrosine-protein kinase BTK (Homo sapiens, UniProt Q06187+Q96SW2). As to the kind of experiment: Induction of CRBN-mediated degradation of wild type BTK (unknown origin) expressed in B cells derived from X-linked agammaglobulinemia patient by immunoblot analysis. As to conditions: b-cell. It counts as cell-based.
Assay [4] deals with T3, Tyrosine-protein kinase BTK (Homo sapiens, UniProt Q06187). Description: Inhibition of BTK (unknown origin).
A short description of assay [5]: Induction of CRBN-mediated degradation of human BTK C481A mutant expressed in human HeLa cells incubated for 4 days by Western blot analysis. It counts as cell-based. As to conditions: 96 h.
A short description of assay [6]: Induction of CRBN-mediated degradation of human BTK C481W mutant expressed in human HeLa cells incubated for 4 days by Western blot analysis. It counts as cell-based. As to conditions: 96 h.
Assay [7] is described as follows: Induction of CRBN-mediated degradation of human BTK C481G mutant expressed in human HeLa cells incubated for 4 days by Western blot analysis. In kind it is cell-based. As to conditions: 96 h.
The nature of assay [8]: Induction of CRBN-mediated degradation of human BTK C481T mutant expressed in human HeLa cells incubated for 4 days by Western blot analysis. In kind it is cell-based. The following applies: 96 h.
The target of assay [9] is T1, Protein cereblon/Tyrosine-protein kinase BTK. Description: Induction of CRBN-mediated degradation of human BTK C481S mutant expressed in human HeLa cells incubated for 4 days by Western blot analysis. In kind it is cell-based.
The target in assay [10] is T2, Protein cereblon/Tyrosine-protein kinase BTK. Description: Induction of CRBN-mediated degradation of wild type human BTK expressed in human HeLa cells incubated for 4 days by Western blot analysis. It counts as cell-based.
Assay [11] relates to LoVo. Description: cells. The following applies: Homo sapiens. It counts as functional, cell-based.
The subject of assay [12] is NCI-H1975. As to the kind of experiment: cells. As to conditions: Homo sapiens.
The nature of assay [13]: Antiproliferative activity against human MGH021-4 cells harboring ALK G1269A mutant after 72 hrs by CellTiter-Glo assay. It counts as functional. As to conditions: MGH0214. For orientation: In ATP-based viability assays light output follows the ATP content of the culture.
Assay [14] is described as follows: Antiproliferative activity against human NCI-H3122-CR1 cells harboring ALK L1196M mutant after 72 hrs by CellTiter-Glo assay. It counts as functional.
A short description of assay [15]: Inhibition of CD74-ROS1 G2032R mutant (unknown origin) expressed in mouse Ba/F3 cells assessed as antiproliferative activity incubated for 72 hrs by CellTiter-Glo luciferase-based ATP detection assay. In kind it is cell-based. As to conditions: BaF3, 72 h.
Assay [16] can be described thus: Inhibition of LMNA-TRKA G595R (unknown origin) expressed in mouse Ba/F3 cells assessed as antiproliferative activity incubated for 72 hrs by CellTiter-Glo luciferase-based ATP detection assay. The following applies: BaF3, 72 h. In kind it is cell-based.
In assay [17] the target is T3, Tyrosine-protein kinase BTK. As to the kind of experiment: Inhibition of wild type BTK (unknown origin).

T2 sequence (Q06187 whole entry): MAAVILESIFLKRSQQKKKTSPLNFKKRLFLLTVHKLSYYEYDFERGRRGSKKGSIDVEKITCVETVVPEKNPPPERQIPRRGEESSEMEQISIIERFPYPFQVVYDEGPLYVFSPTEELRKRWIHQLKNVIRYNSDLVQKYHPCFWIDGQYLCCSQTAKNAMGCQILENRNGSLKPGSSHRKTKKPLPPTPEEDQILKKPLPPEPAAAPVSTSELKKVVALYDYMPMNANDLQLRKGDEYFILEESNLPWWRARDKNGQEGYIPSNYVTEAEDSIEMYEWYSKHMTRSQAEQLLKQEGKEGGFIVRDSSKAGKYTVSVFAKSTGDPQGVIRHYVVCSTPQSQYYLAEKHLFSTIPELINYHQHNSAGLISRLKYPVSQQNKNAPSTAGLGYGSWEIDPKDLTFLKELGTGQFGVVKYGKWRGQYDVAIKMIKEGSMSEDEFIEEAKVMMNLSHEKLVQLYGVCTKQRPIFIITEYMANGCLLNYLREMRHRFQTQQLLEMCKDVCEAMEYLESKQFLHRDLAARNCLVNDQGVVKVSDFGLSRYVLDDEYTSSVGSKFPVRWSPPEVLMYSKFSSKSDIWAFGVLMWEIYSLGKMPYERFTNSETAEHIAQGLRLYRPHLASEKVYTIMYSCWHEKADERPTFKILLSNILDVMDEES
T2 sequence (Q96SW2 whole entry): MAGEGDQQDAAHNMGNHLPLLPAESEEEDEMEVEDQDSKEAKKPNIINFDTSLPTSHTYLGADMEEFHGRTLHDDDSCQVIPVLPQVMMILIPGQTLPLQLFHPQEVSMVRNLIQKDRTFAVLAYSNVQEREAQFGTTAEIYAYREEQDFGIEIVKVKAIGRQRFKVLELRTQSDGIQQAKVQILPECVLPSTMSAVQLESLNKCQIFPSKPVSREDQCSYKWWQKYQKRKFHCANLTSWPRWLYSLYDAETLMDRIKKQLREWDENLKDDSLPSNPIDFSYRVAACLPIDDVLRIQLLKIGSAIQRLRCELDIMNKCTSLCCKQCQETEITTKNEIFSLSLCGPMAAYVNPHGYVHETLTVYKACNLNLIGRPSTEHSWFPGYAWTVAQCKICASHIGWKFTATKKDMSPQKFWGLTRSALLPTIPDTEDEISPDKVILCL
T3 sequence (Q06187 whole entry): as the sequence (Q06187 whole entry) above
T1 sequence (Q06187 2-659 C481S limits assumed, stated change not applied): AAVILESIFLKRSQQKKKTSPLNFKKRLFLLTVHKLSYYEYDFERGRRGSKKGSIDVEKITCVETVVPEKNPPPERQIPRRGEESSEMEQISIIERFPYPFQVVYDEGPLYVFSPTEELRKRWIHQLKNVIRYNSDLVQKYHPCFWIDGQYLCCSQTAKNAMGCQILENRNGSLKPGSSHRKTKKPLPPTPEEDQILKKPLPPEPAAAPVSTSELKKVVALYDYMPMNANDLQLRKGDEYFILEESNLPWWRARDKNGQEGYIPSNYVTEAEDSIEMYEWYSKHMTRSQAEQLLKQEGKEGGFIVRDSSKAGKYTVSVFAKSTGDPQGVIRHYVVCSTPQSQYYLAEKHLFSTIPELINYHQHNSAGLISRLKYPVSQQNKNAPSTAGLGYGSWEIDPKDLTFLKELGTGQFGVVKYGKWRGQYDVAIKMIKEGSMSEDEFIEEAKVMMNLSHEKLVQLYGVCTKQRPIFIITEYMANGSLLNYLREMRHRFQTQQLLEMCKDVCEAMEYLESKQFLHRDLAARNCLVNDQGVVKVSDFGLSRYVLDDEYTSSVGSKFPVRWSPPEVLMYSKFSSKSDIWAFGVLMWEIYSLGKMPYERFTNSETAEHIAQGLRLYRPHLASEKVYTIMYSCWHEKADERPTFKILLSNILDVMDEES
T1 sequence (Q96SW2 whole entry, stated change not applied): as the sequence (Q96SW2 whole entry) above

For orientation: IC50 means the midpoint of a concentration-inhibition curve. `C=CC(=O)Nc1cccc(Oc2nc(Nc3ccc(N4CCN(C)CC4)cc3OC)ncc2Cl)c1`: the concentration for half-maximal inhibition (IC50) in assay [1] came out at 2130 nM.
A word on the DC50: it is the midpoint of the concentration-degradation curve. A high value points to degradation only at high concentration. Consider `Nc1ncnc2c1c(-c1ccc(Oc3ccccc3)cc1)nn2[C@@H]1CCCN(CCOCCOCC(=O)Nc2ccc3c(c2)CN(C2CCC(=O)NC2=O)C3=O)C1` (some centres undefined), for which the DC50 turned out to be 14.9 nM in [2] and 14.6 nM in assay [3].
In assay [4], `Cc1c(NC(=O)c2ccc(C(C)(C)C)cc2)cccc1-c1cn(C)c(=O)c(Nc2ccc(C(=O)N3CCN(CCCCCCNC(=O)CNc4cccc5c4C(=O)N(C4CCC(=O)NC4=O)C5=O)CC3)cc2)n1` (centres undefined) came in with a 50% inhibitory concentration (IC50) of 5.1 nM.
With `Nc1ncnc2c1c(-c1ccc(Oc3ccccc3)cc1)nn2[C@@H]1CCCN(C(=O)c2cn(CCOCCOCCOCCCc3ccc4c(c3)CN(C3CCC(=O)NC3=O)C4=O)nn2)C1` (some centres undefined), the DC50 in assay [5], in [6], in [7], in [8], in assay [9] and in [10] was 18 nM each time.
Regarding `CN(C)C/C=C/C(=O)Nc1cc2c(Nc3ccc(F)c(Cl)c3)ncnc2cc1O[C@H]1CCOC1` [AFATINIB], the IC50 in [11] worked out at 15 nM; in assay [12], 22 nM.
Usually GI50 stands for the concentration giving 50% growth inhibition. A low value points to greater sensitivity of the cells. On to `Cc1cc(Nc2ncc(Cl)c(Nc3ccccc3S(=O)(=O)C(C)C)n2)c(OC(C)C)cc1C1CCNCC1` [CERITINIB], for which the GI50 in assay [13] came out at 80 nM; in assay [14] it was 230 nM.
Taken in the same sequence, the figures for `C[C@@H](Oc1cc(-c2cnn(C3CCNCC3)c2)cnc1N)c1c(Cl)ccc(F)c1Cl` [CRIZOTINIB] were 500 nM and 2880 nM.
In the case of `C[C@H]1CNC(=O)c2cnn3ccc(nc23)N[C@H](C)c2cc(F)ccc2O1` [REPOTRECTINIB], the IC50 turned out to be 3.3 nM in assay [15] and 0.4 nM in [16].
`NC(=O)[C@H]1CCN(c2ncnc(N)c2F)C[C@@H]1N1CCC[C@@H](Nc2cc(Cl)cc(C(F)(F)F)c2)C1=O` [VECABRUTINIB]: the half-inhibitory concentration (IC50) in assay [17] worked out at 2.9 nM.
